The record followed here is ChEMBL document CHEMBL1201862, “PubChem BioAssay data set” (2004).

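These data come from cells grown in 96-well plates and exposed to compound for 48 hours at five concentrations. At the GI50, growth is halved.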 The source made the active and inactive calls. No stated cut-off is given here; in the data, active = GI50 up to about 1.1 µM and inactive = higher.

Test systems include NCI-H23; KM-20L2; Malme-3M; NCI/ADR-RES; LOX IMVI; T47D; UACC-62; NCI-H460; IGROV-1; SNB-19; OVCAR-8; HT-29; HCC 2998; SNB-75; UO-31; DMS-114; SNB-78; HOP-18; SR; DMS-273.
What all share (assay): inhibition of tumour cell growth, NCI panel, 48 h

With `CC(=O)OCC1OC(n2cc(F)c(=O)[nH]c2=O)C(OC(C)=O)C1OC(C)=O` (centres undefined), the GI50 was 75.2 µM (inactive) in the assay with NCI-H23; 54.1 µM (inactive) with KM-20L2; 5.05 µM (inactive) with Malme-3M; 37.4 µM (inactive) in the assay on NCI/ADR-RES; 5.9 µM (inactive) in the assay with LOX IMVI; 19.2 µM (inactive) in the assay with T47D. Further, the GI50 in the assay with UACC-62 was 17.5 µM (inactive); with NCI-H460, 5.37 µM (inactive); in the assay on IGROV-1 it was 52.4 µM (inactive); with SNB-19 it was 30.8 µM (inactive); in the assay with OVCAR-8, 26 µM (inactive); with HT-29 it was 27.9 µM (inactive). The GI50 with HCC 2998 was 7.1 µM (inactive); in the assay on SNB-75 it was 23.6 µM (inactive); in the assay with UO-31, 11.8 µM (inactive); with DMS-114, 39.8 µM (inactive); in the assay on SNB-78, > 100 µM (inactive); in the assay on HOP-18, 38 µM (inactive). Also, in the assay on SR, the GI50 is 6.73 µM (inactive).

As to `O=C1OC2C(O)COC2(O)C1(O)Cc1c[nH]c2ccccc12.O=C1OC2C(O)COC2(OCc2c[nH]c3ccccc23)C1O` (centres undefined), the GI50 in the assay with NCI-H23, in the assay with KM-20L2, with Malme-3M, in the assay on DMS-273, with LOX IMVI and in the assay with UACC-62 was > 100 µM (inactive) each time. Besides, the GI50 in the assay with NCI-H460, in the assay on IGROV-1, in the assay on SNB-19, with OVCAR-8, in the assay on HT-29 and in the assay with SNB-75 was > 100 µM (inactive) throughout. Moreover, the GI50 in the assay on UO-31, in the assay on DMS-114, in the assay with SNB-78, with HOP-18 and with SR was > 100 µM (inactive) in each case.

For the compound `O=C(O)COc1ccc(C(=O)/C(SS/C(C(=O)c2ccc(OCC(=O)O)c(Cl)c2Cl)=C2\C=C(c3ccccc3Cl)SS2)=C2/C=C(c3ccccc3Cl)SS2)c(Cl)c1Cl`, the GI50 is 22 µM (inactive) with NCI-H23; 49.8 µM (inactive) in the assay with KM-20L2; 53.8 µM (inactive) in the assay with Malme-3M; 25.6 µM (inactive) with DMS-273; 9.89 µM (inactive) with LOX IMVI; 23.1 µM (inactive) in the assay on UACC-62. The GI50 with NCI-H460 was 21.8 µM (inactive); in the assay on IGROV-1, 21.3 µM (inactive); in the assay with SNB-19, 22.6 µM (inactive); in the assay on OVCAR-8, 23.7 µM (inactive); in the assay with HT-29 it was 21.7 µM (inactive); with HCC 2998 it was 57.1 µM (inactive). Further, the GI50 in the assay with SNB-75 was 35.1 µM (inactive); with UO-31, 24.3 µM (inactive); with DMS-114, 9.73 µM (inactive); with SNB-78 it was 16.9 µM (inactive); with HOP-18, 24.1 µM (inactive); with SR, 2.23 µM (inactive).

On to `COC(=O)CCC(NC(=S)N/N=C(\C)c1cccs1)C(=O)OC` (centres undefined), for which the GI50 in the assay with NCI-H23, with KM-20L2, in the assay on Malme-3M, in the assay with DMS-273, in the assay on LOX IMVI and in the assay on UACC-62 was > 100 µM (inactive) in each case. In addition, the GI50 in the assay on NCI-H460, in the assay with IGROV-1, in the assay on SNB-19, in the assay on OVCAR-8, in the assay on HT-29 and with HCC 2998 was > 100 µM (inactive) each time. Further, the GI50 in the assay on SNB-75, with UO-31, with DMS-114, in the assay on SNB-78 and in the assay on HOP-18 was > 100 µM (inactive) in each case.

On to `CCCCC(C)/C=C/C(O)=C1\C(=O)O/C(=C\C(=O)O)C1=O` (centres undefined), for which the GI50 in the assay on NCI-H23, with KM-20L2, in the assay with Malme-3M, with DMS-273, with LOX IMVI and in the assay on UACC-62 was > 100 µM (inactive) throughout. For the same compound, the GI50 in the assay with NCI-H460, in the assay on IGROV-1, with SNB-19, in the assay on OVCAR-8, with HT-29 and in the assay with SNB-75 was > 100 µM (inactive) throughout. Moreover, the GI50 in the assay on UO-31, in the assay with DMS-114, in the assay on SNB-78, in the assay on HOP-18 and in the assay with SR was > 100 µM (inactive) throughout.

Take `O=C(NO)C(=O)Nc1ccc(Cl)cc1[N+](=O)[O-]`: the GI50 was > 100 µM (inactive) in the assay on NCI-H23; > 100 µM (inactive) in the assay with KM-20L2; > 100 µM (inactive) with Malme-3M; > 100 µM (inactive) with DMS-273; 51.9 µM (inactive) in the assay on LOX IMVI; > 100 µM (inactive) with UACC-62. For the same compound, the GI50 with NCI-H460, in the assay on IGROV-1, in the assay with SNB-19, with OVCAR-8, in the assay with HT-29 and with HCC 2998 was > 100 µM (inactive) in each case. For the same compound, the GI50 with SNB-75, in the assay with UO-31, in the assay on DMS-114, with SNB-78, with HOP-18 and with SR was > 100 µM (inactive) each time.

For `COc1ccc2[nH]c3c(C)c4cc[n+](COC(=O)c5ccccc5)cc4c(C)c3c2c1`, the GI50 in the assay with NCI-H23 is 0.428 µM (active); in the assay with KM-20L2, 0.282 µM (active); in the assay on Malme-3M it was 1.43 µM (inactive); in the assay with LOX IMVI it was 0.21 µM (active); with UACC-62 it was 1.09 µM (active); in the assay with NCI-H460 it was 0.0357 µM (active). The GI50 was 0.158 µM (active) in the assay on IGROV-1; 0.713 µM (active) in the assay on SNB-19; 0.0851 µM (active) with OVCAR-8; 0.117 µM (active) with HT-29; 0.703 µM (active) in the assay on SNB-75; 1.76 µM (inactive) in the assay on UO-31. Also, the GI50 in the assay with DMS-114 is 0.279 µM (active); in the assay on SNB-78 it was 0.897 µM (active); in the assay on HOP-18 it was 0.0198 µM (active); with SR, 0.0313 µM (active).

On to `Nc1nc(N)c2ncn(CC(CO)CC(c3ccccc3)P(=O)(O)O)c2n1` (centres undefined), for which the GI50 in the assay on NCI-H23, in the assay with KM-20L2, in the assay on Malme-3M, in the assay on DMS-273, with LOX IMVI and in the assay with UACC-62 was > 100 µM (inactive) each time. The GI50 with NCI-H460, with IGROV-1, in the assay with SNB-19, in the assay on OVCAR-8, with HT-29 and in the assay with HCC 2998 was > 100 µM (inactive) in each case. Moreover, the GI50 with SNB-75, in the assay on UO-31, in the assay on DMS-114, in the assay with SNB-78 and in the assay on HOP-18 was > 100 µM (inactive) in each case.
